Entries after “also recorded” stand apart in the source; their conditions may differ. Blank lines part the entries; values can stand above or below the molecule they belong to.
Key:
NIK = target: T1, NIK (Homo sapiens, UniProt Q99558); assay: NIK enzyme inhibition assay (Transcreener ADP, fluorescence polarization); type: biochemical; settings: for NIK enzyme inhibition, rank among the 4 stereoisomers: in words, four separated stereoisomers of Example 1
T1 construct: made in house; host or cells: baculovirus-infected insect cells
T1 sequence (Q99558 whole entry): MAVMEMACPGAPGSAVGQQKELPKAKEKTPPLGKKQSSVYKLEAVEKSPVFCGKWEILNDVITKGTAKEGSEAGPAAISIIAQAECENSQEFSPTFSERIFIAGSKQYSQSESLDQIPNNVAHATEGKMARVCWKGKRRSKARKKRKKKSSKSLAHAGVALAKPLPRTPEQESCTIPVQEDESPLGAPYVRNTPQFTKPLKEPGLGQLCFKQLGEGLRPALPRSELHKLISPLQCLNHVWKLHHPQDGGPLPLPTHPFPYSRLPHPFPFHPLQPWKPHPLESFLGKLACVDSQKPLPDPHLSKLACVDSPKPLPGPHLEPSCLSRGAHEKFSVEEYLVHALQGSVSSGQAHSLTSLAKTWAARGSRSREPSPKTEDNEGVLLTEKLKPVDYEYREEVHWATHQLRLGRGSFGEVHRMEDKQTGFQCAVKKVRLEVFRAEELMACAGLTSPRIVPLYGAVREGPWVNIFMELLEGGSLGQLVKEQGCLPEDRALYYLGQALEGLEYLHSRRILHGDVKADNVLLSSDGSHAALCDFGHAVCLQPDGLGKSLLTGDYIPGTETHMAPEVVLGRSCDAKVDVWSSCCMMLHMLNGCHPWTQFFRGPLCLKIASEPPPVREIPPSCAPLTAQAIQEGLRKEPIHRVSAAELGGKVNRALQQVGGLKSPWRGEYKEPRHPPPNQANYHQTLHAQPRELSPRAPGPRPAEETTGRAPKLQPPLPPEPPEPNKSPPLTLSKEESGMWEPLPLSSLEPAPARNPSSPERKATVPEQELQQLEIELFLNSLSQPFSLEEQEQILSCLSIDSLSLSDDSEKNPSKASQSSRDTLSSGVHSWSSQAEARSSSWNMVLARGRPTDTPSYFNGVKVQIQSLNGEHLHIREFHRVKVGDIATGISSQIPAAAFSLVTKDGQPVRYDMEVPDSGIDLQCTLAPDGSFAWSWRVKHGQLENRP
Experimental: The ability of the nuclear factor-kappa B (NF-kB)-inducing kinase (NIK) to catalyze the hydrolysis of adenosine-5′-triphosphate (ATP) was monitored using the Transcreener ADP (adenosine-5′-diphosphate) assay (BellBrook Labs). Purified NIK (0.5 nM) derived from a baculovirus-infected insect cell expression system was incubated with test compounds for 1-3.5 hours in 50 mM 2-[4-(2-hydroxyethyDpiperazin-1-yl]ethanesulfonic acid buffer (pH 7.2) containing 10 mM MgCl2, 2 mM dithiothreitol, 10 μM ATP, 0.01% Triton X-100, 0.1% gamma-globulins from bovine blood, 1% dimethylsulfoxide (DMSO), 7 μg/mL ADP antibody and 5 nM ADP-MR121 633 tracer. Reactions were quenched by the addition of 20 mM 2,2′,2″, 2″′-(ethane-1,2-diyldinitrilo)tetraacetic acid and 0.01% Brij 35. The tracer bound to the antibody was displaced by the ADP generated during the NIK reaction, which causes a decrease in fluorescence polarization that was measured by laser excitation at 633 nm with a Fluorescence Correlation Spectroscopy Plus reader (Evotec AG). Equilibrium dissociation constant (Ki) values for NIK inhibitors are calculated from plots of activity vs. inhibitor concentration using Morrison's quadratic equation that accounts for the potential of tight binding, and by also applying the conversion factor that accounted for competitive inhibition and the concentration of substrate used in the assay relative to its Michaelis constant (Km).

[1] = tested on: REL-A (p65) nuclear translocation, classical NF-kB signaling, HUVEC; assay: REL-A HUVEC nuclear translocation assay; type: cell-based; settings: Homo sapiens, TNF-α 2 ng/mL stimulation
Experimental: (§1) (2) A second set of cell assays used primary human umbilical vein cells (HUVEC) sourced from Lonza to define the selectivity of NIK inhibitors toward inhibition of classical vs. non-classical NF-kB signaling using high content cellular imaging. For the p52 (non-classical NF-kB signaling) nuclear translocation assay, HUVEC were treated with different concentrations of compounds (0.2% DMSO final) in EBM-2 medium (LONZA) containing 2% fetal bovine serum and then stimulated with 300 ng/mL of an anti-lymphotoxin beta receptor antibody (R&D Systems) for 4.5 hours. In the REL-A nuclear translocation assay, HUVEC were incubated with compounds (0.2% DMSO final) for 4 hours 50 minutes in EBM-2 medium containing 2% fetal bovine serum before stimulating them with 2 ng/mL tumor necrosis factor (TNF)-α (R&D Systems) for 10 minutes. Cells were fixed with 4% paraformaldehyde, permeabilized by adding 0.1% Triton X-100 in phosphate buffered saline, and then were incubated with either 2 μg/mL anti-p52 antibody (Millipore) or 400 ng/mL anti-REL-A (p65) antibody (Santa Cruz Biotechnology). […] Imaging was carried out using an Opera reader (Perkin Elmer) and data were analyzed with the aid of Acapella software (Perkin Elmer). The p52 or REL-A translocation into the nucleus was quantified by the ratio of the nuclear to cytoplasmic signal intensity.

[2] = tested on: p52 nuclear translocation, non-classical NF-kB signaling, HUVEC; assay: p52 HUVEC nuclear translocation assay; type: cell-based; settings: Homo sapiens, anti-lymphotoxin beta receptor antibody 300 ng/mL
Experimental: as §1

[3] = Liver microsome stability; type: in vitro ADME, human
Experimental: General. Metabolic stability assays in liver microsomes are conducted with pooled female CD-1 mouse, male Sprague-Dawley rat, male beagle dog, male cynomolgus monkey, and mixed male and female human liver microsomal incubations. The general assay conditions are as follows. Incubation mixtures consisted of liver microsomes (0.5 mg of microsomal protein/ml) and the test compound (1.0 μM) with or without NADPH (1.0 mM) in the potassium phosphate buffer (100 mM; pH 7.4) with a final incubation volume of 0.25 ml. Reactions are initiated by the addition of NADPH or buffer and shaken in a water bath open to the air at 37° C. At times 0, 20, 40, and 60 min, aliquots (50 μl) are removed and added to termination mixtures (100 μl) containing acetonitrile and an internal standard. The samples are then centrifuged for 10 min at 2000 g. The supernatant (90 μl) is removed, combined with 180 μl of water, and analyzed by LC-MS/MS.
Metabolic stability of the test compounds were evaluated in human liver microsomes following known protocols described in Halladay, et al. Drug Metabol. Lett. 2007, 1:67-72.

Hepatocyte stability = type: in vitro ADME, human
Experimental: General. Metabolic stability assays in hepatocytes are conducted using cryopreserved pooled female CD-1 mouse, male Sprague-Dawley rat, male beagle dog, male cynomolgus monkey, and mixed male and female human hepatocytes (CellzDirect). Vials of hepatocytes are thawed rapidly in a water bath set at 37° C. and then are diluted with Dulbecco's modified Eagle's medium (DMEM), pH 7.4. Cells are isolated by centrifugation, pooled, and resuspended in DMEM at 1.0 million viable cells/ml. Membrane integrity of the cells is assessed by trypan blue exclusion. The test compound is dissolved in dimethyl sulfoxide at a final concentration of […]. This test compound stock is diluted further to 2 μM in DMEM (125 μl) before the addition of an equal volume of the 10^6 cells/ml cell suspension. The test compound (final incubation concentration of 1.0 μM with 0.1% dimethyl sulfoxide) and cells (final concentration of 0.5×10^6 cells/ml) are incubated at 37° C. in a 95% air/5% CO2 atmosphere for 3 h. Aliquots (50 μl) are removed at 0, 1, 2, and 3 hours and added to termination mixtures (100 μl) containing acetonitrile and an internal standard. […] The supernatant (90 μl) is removed, combined with 180 μof water, and analyzed by LC-MS/MS.
Metabolic stability of the test compounds were evaluated also in human hepatocytes, following protocols described in Hallifax, et al. Drug Metabol. […]

Compound: CN1C(=O)[C@](O)(C#Cc2cccc(-c3cccc(C(N)=O)n3)c2)[C@@H]2C[C@@H]21 (single isomer, unassigned)
NIK enzyme inhibition, rank among the 4 stereoisomers (NIK): second most potent NIK enzyme inhibitor among the 4 stereoisomers

Compound: CN1C(=O)[C@@](O)(C#Cc2cccc(-c3cccc(C(N)=O)n3)c2)[C@H]2C[C@H]21 (single isomer, unassigned)
NIK enzyme inhibition, rank among the 4 stereoisomers (NIK): third most potent NIK enzyme inhibitor among the 4 stereoisomers

Ki (NIK; purified NIK 0.5 nM, 10 μM ATP, read-out: NIK ADP-FP Ki): 0.0004 µM | HLM CL (human liver microsome clearance) ([3]; human liver microsomes): 1.2 mL/min/kg | Hep CL (human hepatocyte clearance) (Hepatocyte stability; human hepatocytes): 4.1 mL/min/kg | stability in the human hepatocyte assay compared with the corresponding comparator compound (Hepatocyte stability; in words, versus comparators C-1, C-3, C-5): better stability
Compound: CN1C(=O)[C@](O)(C#Cc2cccc(-c3cccc(C(N)=O)n3)c2)[C@H]2C[C@H]21 (single isomer, unassigned) [Compound 1]
NIK enzyme inhibition, rank among the 4 stereoisomers (NIK): most potent NIK enzyme inhibitor among the 4 stereoisomers | IC50 [1]: > 5 µM | IC50 [2]: 0.093 µM | stability in human liver microsomes compared with the respective pyrrolidinone comparator compound ([3]; in words, versus comparators C-1, C-3, C-4, C-5, C-6): lower clearance; also recorded: better stability

NIK enzyme inhibition, rank among the 4 stereoisomers (NIK): no measurable inhibition
Compound: CN1C(=O)[C@@](O)(C#Cc2cccc(-c3cccc(C(N)=O)n3)c2)[C@@H]2C[C@@H]21 (single isomer, unassigned)

Source: patent US10654824B2, “2-azabicyclo[3.1.0]hexan-3-one derivatives and methods of use” (Genentech, Inc., priority 2016, dated 2020)
